Experimental data: ChEMBL document CHEMBL1122192, “Nitro and amino derivatives of lucanthone as antitumor agents” (1982)

Key:
P388 [1] = test: In vivo antitumor activity against P-388 lymphocytic leukemia at the dose of 25 mg/kg; format: functional, Mus musculus
P388 [2] = test: In vivo antitumor activity against P-388 lymphocytic leukemia at the dose of 12.5 mg/kg; format: functional, Mus musculus
P388 [3] = test: In vivo antitumor activity against P-388 lymphocytic leukemia at the dose of 50 mg/kg; format: functional, Mus musculus
P388 [4] = test: In vivo antitumor activity against P-388 lymphocytic leukemia at the dose of 100 mg/kg; format: functional, Mus musculus
P388 [5] = test: In vivo antitumor activity against P-388 lymphocytic leukemia at the dose of 200 mg/kg; format: functional, Mus musculus
P388 [6] = test: In vivo antitumor activity against P-388 lymphocytic leukemia at the dose of 200 mg/kg; Toxic; format: functional, organism-based; set-up: dose 200 mg/kg; conditions: Mus musculus

Row | SMILES | T/C (P388 [1]) | T/C (P388 [2]) | T/C (P388 [3]) | T/C (P388 [4]) | T/C (P388 [5]) | T/C (P388 [6])
1 | CN(C)CCNc1ccc([N+](=O)[O-])c2sc3ccccc3c(=O)c12 | 135 | 114 | 143 | 103 | – | –
2 | CCN(CC)CCNc1ccc([N+](=O)[O-])c2sc3ccccc3c(=O)c12 | – | – | 142 | 145 | 178 | –
3 | CN(C)CCNc1ccc(N)c2sc3ccccc3c(=O)c12 | – | – | 100 | 121 | – | Toxic
4 | CCN(CC)CCNc1ccc(C)c2sc3c(N)cccc3c(=O)c12 | – | – | 100 | 113 | 123 | –
5 | CCN(CC)CCNc1ccc(N)c2sc3ccccc3c(=O)c12 | – | – | 107 | 122 | 125 | –
6 | O=c1c2ccccc2sc2c([N+](=O)[O-])ccc(NCCNCCO)c12 | 141 | 133 | 120 | – | – | –
7 | CCN(CC)CCNc1ccc(C)c2sc3ccc(N)cc3c(=O)c12 | 103 | 120 | 138 | – | – | –
8 | Nc1ccc(NCCNCCO)c2c(=O)c3ccccc3sc12 | – | – | 132 | – | – | –
